Read-outs that look alike come from different tables or passages of the source.
Legend:
[1] = target: rat mGlu2 receptor (Rattus norvegicus (Rat), UniProt P31421); test: mGlu2 in vitro GIRK thallium flux assay; format: cell-based; conditions: NAM, EC80 glutamate, HEK-293 GIRK cells
Protocol: (§1) All cell culture reagents were purchased from Invitrogen Corp. (Carlsbad, Calif.) unless otherwise noted. Compound activity at the group II (mGlu2 and mGlu3) mGlus was assessed using thallium flux through GIRK channels. Briefly, cells were plated into 384-well, black-walled, clear-bottomed poly-D-lysine-coated plates at a density of 15,000 cells/20 μL/well in DMEM containing 10% dialyzed FBS, 20 mM HEPES, and 100 units/mL penicillin/streptomycin (assay media). Plated cells were incubated overnight at 37° C. in the presence of 5% CO2. […] Cells were incubated for 1 h at room temperature, and the dye exchanged to assay buffer using an ELX405, leaving 20 μL/well. Test compounds were diluted to 2 times their final desired concentration in assay buffer (0.3% DMSO final concentration). […] Cell plates and compound plates were loaded onto a kinetic imaging plate reader (FDSS 6000 or 7000; Hamamatsu Corporation, Bridgewater, N.J.). Appropriate baseline readings were taken (10 images at 1 Hz; excitation, 470±20 nm; emission, 540±30 nm) and test compounds were added in a 20 μL volume and incubated for either 2.5 min or 60 min as indicated before the addition of 10 μL of thallium buffer with or without agonist. After the addition of agonist, data were collected for approximately an additional 2.5 min. Data were analyzed using Excel (Microsoft Corp, Redmond, Wash.). The slope of the fluorescence increase beginning 5 s after thallium/agonist addition and ending 15 s after thallium/agonist addition was calculated, corrected to vehicle and maximal agonist control slope values, and plotted in using either XLfit (ID Business Solutions Ltd) or Prism software (GraphPad Software, San Diego, Calif.) to generate concentration-response curves. Potencies were calculated from fits using a four-point parameter logistic equation. For concentration-response curve experiments, compounds were serially diluted 1:3 into 10 point concentration response curves and were transferred to daughter plates using an Echo acoustic plate reformatter (Labcyte, Sunnyvale, Calif.). Test compounds were applied and followed by EC80 concentrations of glutamate.

[2] = target: rat mGlu3 receptor (Rattus norvegicus (Rat), UniProt P31422); test: mGlu3 in vitro GIRK thallium flux assay; format: cell-based; conditions: NAM; 2.5 min compound incubation; EC80 glutamate; HEK-293 GIRK cells
Protocol: as §1

[3] = 2.5 min compound incubation, read-out: mGlu2 EC50 (μM) (2.5 min)
[4] = mGlu2 EC50 (μM) (60 min), 60 min compound incubation
[5] = read-out: mGlu2 EC50 (μM) (60 min), 60 min compound incubation

Chain of rat mGlu3 receptor (P31422 23-879): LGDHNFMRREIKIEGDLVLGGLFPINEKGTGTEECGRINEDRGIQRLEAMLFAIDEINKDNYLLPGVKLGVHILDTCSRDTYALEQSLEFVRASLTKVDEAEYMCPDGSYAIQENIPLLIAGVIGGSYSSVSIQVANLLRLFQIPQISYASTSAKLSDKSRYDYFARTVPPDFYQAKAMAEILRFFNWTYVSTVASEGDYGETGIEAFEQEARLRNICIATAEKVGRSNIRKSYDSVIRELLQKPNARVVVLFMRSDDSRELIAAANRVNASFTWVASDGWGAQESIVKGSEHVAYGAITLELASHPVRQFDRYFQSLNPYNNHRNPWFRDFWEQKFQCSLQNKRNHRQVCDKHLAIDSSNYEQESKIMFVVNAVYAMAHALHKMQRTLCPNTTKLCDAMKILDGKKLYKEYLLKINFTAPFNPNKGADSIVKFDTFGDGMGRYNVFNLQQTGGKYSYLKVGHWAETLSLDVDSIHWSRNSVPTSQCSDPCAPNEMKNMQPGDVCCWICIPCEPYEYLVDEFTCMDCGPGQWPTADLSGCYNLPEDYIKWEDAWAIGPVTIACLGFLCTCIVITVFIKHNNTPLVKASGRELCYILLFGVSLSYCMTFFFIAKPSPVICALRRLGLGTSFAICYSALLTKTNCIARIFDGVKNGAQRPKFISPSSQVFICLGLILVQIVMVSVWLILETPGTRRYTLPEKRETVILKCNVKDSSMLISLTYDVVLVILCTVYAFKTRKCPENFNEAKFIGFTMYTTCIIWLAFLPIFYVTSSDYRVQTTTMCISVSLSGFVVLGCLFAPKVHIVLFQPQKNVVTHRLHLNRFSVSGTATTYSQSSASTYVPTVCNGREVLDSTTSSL
Chain of rat mGlu2 receptor (P31421 19-872): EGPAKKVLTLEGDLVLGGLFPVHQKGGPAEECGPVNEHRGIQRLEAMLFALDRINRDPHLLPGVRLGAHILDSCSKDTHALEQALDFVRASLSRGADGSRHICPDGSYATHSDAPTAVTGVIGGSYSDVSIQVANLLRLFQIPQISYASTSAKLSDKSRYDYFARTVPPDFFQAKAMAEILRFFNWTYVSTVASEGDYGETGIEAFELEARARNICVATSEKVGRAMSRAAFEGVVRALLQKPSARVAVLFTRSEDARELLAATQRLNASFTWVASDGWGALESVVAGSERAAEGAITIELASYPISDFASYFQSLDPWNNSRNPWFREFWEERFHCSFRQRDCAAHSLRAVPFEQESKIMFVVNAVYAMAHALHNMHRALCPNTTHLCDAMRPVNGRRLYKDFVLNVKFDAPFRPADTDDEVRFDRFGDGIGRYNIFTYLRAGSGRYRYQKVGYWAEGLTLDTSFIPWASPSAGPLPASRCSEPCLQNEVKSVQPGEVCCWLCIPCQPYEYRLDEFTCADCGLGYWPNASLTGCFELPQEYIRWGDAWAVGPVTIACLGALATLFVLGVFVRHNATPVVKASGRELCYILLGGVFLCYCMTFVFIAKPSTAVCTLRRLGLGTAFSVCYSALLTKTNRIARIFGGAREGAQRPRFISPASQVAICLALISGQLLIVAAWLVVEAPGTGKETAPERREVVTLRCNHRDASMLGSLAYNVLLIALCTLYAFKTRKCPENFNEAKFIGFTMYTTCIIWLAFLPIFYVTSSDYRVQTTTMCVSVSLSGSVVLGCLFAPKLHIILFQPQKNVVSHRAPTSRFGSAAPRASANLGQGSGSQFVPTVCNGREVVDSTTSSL

EC50 [1, 3] [µM]	EC50 [1, 4] [µM]	EC50 [2] [µM]	Structure (SMILES)	EC50 [1, 5] [µM]
> 10	4.43	> 10	Cc1cc2c(cc1C(F)(F)F)NC(=O)CC(c1cccc(CCCO)c1)N2 (racemic) [Example 154, 4-(3-(3-Hydroxypropyl)phenyl)-7-methyl-8-(trifluoromethyl)-4,5-dihydro-1H-benzo[b][1,4]diazepin-2(3H)-one]	–
> 10	3.7	> 10	Cc1cc(-c2cccc(C3CC(=O)Nc4cc(C(F)(F)F)c(C)cc4N3)c2)cc(C)n1 (racemic) [Example 156, 4-(3-(2,6-Dimethylpyridin-4-yl)phenyl)-7-methyl-8-(trifluoromethyl)-4,5-dihydro-1H-benzo[b][1,4]diazepin-2(3H)-one]	–
> 30	> 10	> 30	NS(=O)(=O)c1cccc(-c2cccc(-c3csc(-c4ccccc4)n3)c2)c1 [Example 2, 3′-(2-Phenylthiazol-4-yl)biphenyl-3-sulfonamide]	–
2.26	2.5	> 10	O=C(O)c1cc(-c2cccc(-c3csc(-c4ccoc4)n3)c2)ccc1F [Example 4, 4-Fluoro-3′-(2-(furan-3-yl)thiazol-4-yl)biphenyl-3-carboxylic Acid]	–
1.35	0.85	3.11	O=C(O)c1cc(-c2cccc(-c3csc(-c4ccc(C(F)(F)F)nc4)n3)c2)ccc1F [Example 5, 4-Fluoro-3′-(2-(6-(trifluoromethyl)pyridin-3-yl)thiazol-4-yl)biphenyl-3-carboxylic Acid]	–
> 10	> 10	> 10	Cc1nc(-c2cccc(-c3ccc(F)c(C(=O)O)c3)c2)cs1 [Example 6, 4-Fluoro-3′-(2-methylthiazol-4-yl)biphenyl-3-carboxylic Acid]	–
2.4	> 10	> 10	O=C(O)c1cc(-c2cccc(-c3csc(-c4ccco4)n3)c2)ccc1F [Example 7, 4-Fluoro-3′-(2-(furan-2-yl)thiazol-4-yl)biphenyl-3-carboxylic Acid]	–
> 10	1.92	> 10	O=C(O)c1cc(-c2cccc(-c3csc(-c4cc5ccccc5s4)n3)c2)ccc1F [Example 8, 3′-(2-(Benzo[b]thiophen-2-yl)thiazol-4-yl)-4-fluorobiphenyl-3-carboxylic Acid]	–
> 10	> 10	> 10	O=C(O)c1cc(-c2ccc(-c3csc(-c4ccccc4)n3)s2)ccc1F [Example 10, 2-Fluoro-5-(5-(2-phenylthiazol-4-yl)thiophen-2-yl)benzoic acid]	–
1.59	3.4	> 30	O=C(O)c1ccc(F)c(-c2cccc(-c3csc(-c4ccccc4)n3)c2)c1 [Example 11, 6-Fluoro-3′-(2-phenylthiazol-4-yl)biphenyl-3-carboxylic Acid]	–
1.73	2.14	1.77	COc1ccc(-c2cccc(-c3csc(-c4ccccc4)n3)c2)cc1C(=O)O [Example 12, 4-Methoxy-3′-(2-phenylthiazol-4-yl)-[1,1′-biphenyl]-3-carboxylic Acid]	–
> 10	> 10	> 10	O=C(O)c1cc(-c2cccc(-c3csc(-c4ccccc4)n3)c2)cc([N+](=O)[O-])c1 [Example 13, 5-Nitro-3′-(2-phenylthiazol-4-yl)biphenyl-3-carboxylic Acid]	–
1.5	0.93	> 10	O=C(O)c1cc(-c2cccc(-c3csc(-c4cccs4)n3)c2)ccc1F [Example 15, 4-Fluoro-3′-(2-(thiophen-2-yl)thiazol-4-yl)biphenyl-3-carboxylic Acid]	–
2.57	1.93	3.32	O=C(O)c1cc(-c2cccc(-c3csc(-c4cc5ccccc5o4)n3)c2)ccc1F [Example 16, 3′-(2-(Benzofuran-2-yl)thiazol-4-yl)-4-fluorobiphenyl-3-carboxylic Acid]	–
3.67	1.55	> 10	O=Cc1cc(-c2cccc(-c3csc(-c4ccccc4)n3)c2)ccc1F [Example 19, 4-Fluoro-3′-(2-phenylthiazol-4-yl)biphenyl-3-carbaldehyde]	–
–	–	–	Fc1ccc(-c2cccc(-c3nc(-c4ccoc4)cc(C(F)(F)F)n3)c2)cc1-c1noc(=S)[nH]1 [Example 134, 3-(4-Fluoro-3′-(4-(furan-3-yl)-6-(trifluoromethyl)pyrimidin-2-yl)-[1,1′-biphenyl]-3-yl)-1,2,4-oxadiazole-5(4H)-thione]	> 10
–	–	–	O=c1[nH]c(-c2cc(-c3cccc(-c4nc(-c5ccoc5)cc(C(F)(F)F)n4)c3)ccc2F)ns1 [Example 135, 3-(4-Fluoro-3′-(4-(furan-3-yl)-6-(trifluoromethyl)pyrimidin-2-yl)-[1,1′-biphenyl]-3-yl)-1,2,4-thiadiazol-5(4H)-one]	> 10
–	–	–	Cc1cccc(C#Cc2cccc(C3=Nc4cc(C)c(C(F)(F)F)cc4NC(=O)C3)c2)n1 [Example 138, 7-Methyl-4-(3-((6-methylpyridin-2-yl)ethynyl)phenyl)-8-(trifluoromethyl)-1H-benzo[b][1,4]diazepin-2 (3H)-one]	> 10
–	–	–	Cc1cc2c(cc1C(F)(F)F)NC(=O)CC(c1cccc(Nc3ccccn3)c1)=N2 [Example 141, 7-Methyl-4-(3-(pyridin-2-ylamino)phenyl)-8-(trifluoromethyl)-1H-benzo[b][1,4]diazepin-2(3H)-one]	> 10
–	–	–	CCOC(=O)/C=C/c1cccc(C2=Nc3cc(C)c(C(F)(F)F)cc3NC(=O)C2)c1 [Example 152, Ethyl 3-(3-((E)-7-methyl-2-oxo-8-(trifluoromethyl)-2,3-dihydro-1H-benzo[b][1,4]diazepin-4-yl)phenyl)acrylate]	3.26
–	–	–	O=C1CC(c2cccc(Br)c2)=Nc2ccc(NC(=O)OCc3ccccc3)cc2N1 [Example 157, Benzyl (4-(3-bromophenyl)-2-oxo-2,3-dihydro-1H-benzo[b][1,4]diazepin-8-yl)carbamate]	> 10

Structure (SMILES)	EC50 [1, 3] [µM]	EC50 [1, 4] [µM]	EC50 [2] [µM]	EC50 [1, 5] [µM]
Cc1cc(-c2cccc(C3CC(=O)Nc4cc(NC(=O)OCc5ccccc5)ccc4N3)c2)cc(C)n1 (racemic) [Example 162, Benzyl (2-(3-(2,6-dimethylpyridin-4-yl)phenyl)-4-oxo-2,3,4,5-tetrahydro-1H-benzo[b][1,4]diazepin-7-yl)carbamate]	> 10	5.36	> 10	–
Cc1cc2c(cc1C(F)(F)F)NC(=O)CC(c1cccc(Oc3ncccn3)c1)N2 (racemic) [Example 164, 7-Methyl-4-(3-(pyrimidin-2-yloxy)phenyl)-8-(trifluoromethyl)-4,5-dihydro-1H-benzo[b][1,4]diazepin-2(3H)-one]	> 10	1.56	5.57	–
Cc1cc2c(cc1C(F)(F)F)NC(=O)CC(c1cccc(Oc3ccccn3)c1)N2 (racemic) [Example 165, 7-Methyl-4-(3-(pyridin-2-yloxy)phenyl)-8-(trifluoromethyl)-4,5-dihydro-1H-benzo[b][1,4]diazepin-2(3H)-one]	4.37	1.47	3.47	–
Cc1cc2c(cc1C(F)(F)F)NC(=O)CC(c1cccc(Sc3ncccn3)c1)N2 (single isomer, unassigned) [Example 166B, 7-Methyl-4-(3-(pyrimidin-2-ylthio)phenyl)-8-(trifluoromethyl)-4,5-dihydro-1H-benzo[b][1,4]diazepin-2(3H)-one]	8.47	–	4.53	1.23
O=C(O)c1cc(-c2cccc(-c3cnc(-c4ccccc4)s3)c2)ccc1F [Example 3, 4-Fluoro-3′-(2-phenylthiazol-5-yl)biphenyl-3-carboxylic Acid]	> 30	–	> 10	> 10
N#Cc1cccc(-c2cccc(-c3csc(-c4ccccc4)n3)c2)c1 [Example 14, 3′-(2-Phenylthiazol-4-yl)biphenyl-3-carbonitrile]	> 30	–	> 30	> 10
O=C(O)c1cc(-c2ccc(-c3csc(-c4ccccc4)n3)cc2)ccc1F [Example 17, 4-Fluoro-4′-(2-phenylthiazol-4-yl)biphenyl-3-carboxylic Acid]	> 30	–	> 30	> 30
O=C(O)c1cc(-c2ccccc2-c2csc(-c3ccccc3)n2)ccc1F [Example 18, 4-Fluoro-2′-(2-phenylthiazol-4-yl)biphenyl-3-carboxylic Acid]	> 10	–	> 10	> 30
